Reference: patent publication US20060057639A1, “CaMKII/calcium channel phosphorylation-related compositions and methods” (priority 2004, published 2006)

Assays:
[1] = target: T1, interaction of autophosphorylated CaMKII with α1C amino acids 1581-1690 (Rattus norvegicus, UniProt P11275); assay: GST pull down of autophosphorylated α-CaMKII with α1C 1581-1690 fusion protein, peptide interference; format: binding; settings: 40 μM peptide; 20 nM autophosphorylated α-CaMKII
T1 construct: made in house; host or cells: GST fusion from bacteria
Experimental: (B) Immunoblot with CBα2 after GST pull down of purified autophosphorylated α-CaMKII (20 nM), using α1C amino acids 1581-1690 fused to GST. Pull down assay performed in the presence of 40 μM of the indicated peptide or the peptide diluent DMSO. (C) Immunoblots with CBα2 or an anti-CaM antibody after a GST pull down assay, using α1C amino acids 1581-1690 (WT), a ^1644TVGKFY^1649→EEDAAA mutant (Mut6), or GST alone, of purified autophosphorylated CaMKII (left) or CaM (right). Top panels show a Ponceau stain of each fusion protein. […] Asterisk indicates p<0.001 for a one-way analysis of variance followed by a Dunnett's test to identify specific pair-wise differences between the means for Mut6 vs. wt and GST vs. wt, n=4-8. […] Top panels show a Ponceau stain of each fusion protein.
Peptides spanning α1C residues 1581-1690 have previously been described (Pitt et al., 2001). The NMDA-L peptide (Bayer et al., 2001), peptides AC-2 (Hanson et al., 1989), AC-3i (Braun and Schulman, 1995), and AC-3c (Braun and Schulman, 1995) have been described elsewhere.
The binding reactions were accomplished in Tris binding buffer (50 mM Tris, 150 mM NaCl, 0.1% T-20 at pH 7.4 ml plus 0.1% BSA) containing 20 nM purified CaMKII. The total protein from the HEK293 cell lysates added to each binding reaction ranged from 9-22 μg, determined by normalizing for the amount of CaMKII activity (Singla et al., 2001). Pre-autophosphorylayion of CaMKII (purified and lysate) was accomplished at 4° C. for 5 min in Tris binding buffer plus 1 mM CaCl2, 5 μM CaM, 1 mM ATP, and 5 mM MgCl2 to restrict the sites of autophosphorylation to primarily Thr286 (Ikeda et al., 1991; Lai et al., 1987; Lou and Schulman, 1989). Final concentration of these components in the binding reaction (1:40) was 0.025 mM CaCl2, 0.125 μM CaM, 0.025 mM ATP, and 0.125 mM MgCl2. The binding reaction was rocked for 1 h at 4° C. and the beads extensively washed in Tris binding buffer (2-3× for 5 mins each). […] CaMKII binding was quantified using densiotometric measurement of band intensity using KODAK 1D Image Analysis Software (Eastman Kodak, Company). […]

[2] = target: cloned L-type channels (subunit α1C77) (Homo sapiens, UniProt Q13936); assay: Check for use-dependence of diltiazem block of calcium currents supported by cloned L-type channels; format: cell-based; settings: same solutions and voltage protocol as in granule cells; diltiazem 100 μM
Experimental: Dissociated cerebellar granule cells were prepared from 7-day old C57/BL6 mouse cerebella and grown in culture by a published protocol (Piedras-Renteria and Tsien, 1998; Randall and Tsien, 1995). The cerebellar granule cells were maintained in Minimal Essential Medium (Invitrogen) supplemented with 10% fetal bovine serum, glucose 5 mg/liter, transferrin 100 mg/liter, insulin 25 mg/liter, glutamine 300 mg/liter, and potassium chloride 20 mM. Cells were plated on Matrigel (Collaborative Biomedical Product) treated glass coverslips in 24-well chambers and maintained in a humidified, 37° C. incubator with […]/5% CO2. Cells were maintained for 6 to 9 days in culture prior to electrophysiological experiments. HEK293 cells stably transfected with the α2-δ and β1C subunits (HEKα2β1) were grown in Dulbecco's Modified Eagle's Medium containing 10% v/v calf serum, penicillin (100 units/ml), streptomycin (100 μg/ml), and kept under positive selection with Geneticin (400 μg/ml) while being maintained as described above. cDNAs encoding the α1C77 subunit (Zühlke and Reuter, 1998) and the green fluorescent protein were transiently transfected into HEKα2β1 cells by using the Lipofectamine2000 reagent (Invitrogen). Electrophysiological experiments were performed >24 hrs after transfection.

CaMKII = CaMKII dephosphorylation using PP1, autonomous activity measurement; format: biochemical; settings: n=4
Experimental: Immunoblots with CBα2 or a phospho-specific CaMKII monoclonal antibody after GST pull down assays, using α1C amino acids 1509-1950 and 20 nM autophosphorylated α-CaMKII. (A) 5 mM EGTA was present in the binding reaction and/or in the wash; in (B), purified recombinant PP1 was added before (PP1-Pre) or after (PP1-Post) the binding reaction in the presence or absence of 5 mM EGTA, as indicated. (C) Time course of reversal of CaMKII autonomous activity following PP1 treatment in solution (n=4). (D) Activity measurements, using peptide AC-2 as a substrate, of CaMKII recovered in GST pull down assays, using α1C amino acids 1509-1950. Ca^2+/CaM-dependent and autonomous activity measurements of CaMKII recovered after treatment with recombinant PP1 for 30 min (PP1) or no treatment (−) in the binding assay (n=4). (E) Proposed mechanism of CaMKII binding to α1C to form a local and dedicated Ca^2+ spike integrator for CDF. […] Ca ^2+/CaM activation and Thr 286 autophosphorylation displace the CaMKII autoregulatory domain within the catalytic lobe to activate the subunit (yellow) and to expose an α1C tethering site. […] CaMKII may remain tethered to other cytoplasmic domains of α1C, as well. […]

[3] = system: L-type Ca^2+ currents in cerebellar granule cells; assay: Patch-clamp recording of Ca2+-dependent facilitation of L-type currents in cultured cerebellar granule cells; format: cell-based, mouse; settings: 2 μM peptide in patch pipette; Ca^2+ as charge carrier; train of five pulses; without peptide facilitation averaged ~50%
Experimental: Dissociated cerebellar granule cells were prepared from 7-day old C57/BL6 mouse cerebella and grown in culture by a published protocol (Piedras-Renteria and Tsien, 1998; Randall and Tsien, 1995). The cerebellar granule cells were maintained in Minimal Essential Medium (Invitrogen) supplemented with 10% fetal bovine serum, glucose 5 mg/liter, transferrin 100 mg/liter, insulin 25 mg/liter, glutamine 300 mg/liter, and potassium chloride 20 mM. Cells were plated on Matrigel (Collaborative Biomedical Product) treated glass coverslips in 24-well chambers and maintained in a humidified, 37° C. incubator with […]/5% CO2. Cells were maintained for 6 to 9 days in culture prior to electrophysiological experiments. […]
Cerebellar granule cells, identified on the basis of morphology and size, comprised >90% of the cells in the primary culture. […] Voltage-gated Ca^2+ and Ba^2+ currents were recorded from cells depolarized to 0 mV with five 20 ms pulses (50 ms interpulse interval) from a −90 mV holding potential. […]

CaMKII, sequence (P11275 whole entry, the tested form may be a part): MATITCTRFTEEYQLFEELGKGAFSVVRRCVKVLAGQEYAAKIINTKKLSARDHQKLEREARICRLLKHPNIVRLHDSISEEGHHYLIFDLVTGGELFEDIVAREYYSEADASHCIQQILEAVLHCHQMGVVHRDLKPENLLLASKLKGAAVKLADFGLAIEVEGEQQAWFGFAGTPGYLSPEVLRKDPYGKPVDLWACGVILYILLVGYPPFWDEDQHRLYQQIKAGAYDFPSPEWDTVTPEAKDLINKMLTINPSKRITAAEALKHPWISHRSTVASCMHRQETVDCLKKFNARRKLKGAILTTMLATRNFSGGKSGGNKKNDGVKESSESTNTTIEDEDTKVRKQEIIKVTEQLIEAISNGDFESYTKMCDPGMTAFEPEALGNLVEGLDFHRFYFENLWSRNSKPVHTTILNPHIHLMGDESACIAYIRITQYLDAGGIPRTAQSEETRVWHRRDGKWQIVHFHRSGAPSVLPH
cloned L-type channels (subunit α1C77), sequence (Q13936 1-2138 isoform Q13936-20): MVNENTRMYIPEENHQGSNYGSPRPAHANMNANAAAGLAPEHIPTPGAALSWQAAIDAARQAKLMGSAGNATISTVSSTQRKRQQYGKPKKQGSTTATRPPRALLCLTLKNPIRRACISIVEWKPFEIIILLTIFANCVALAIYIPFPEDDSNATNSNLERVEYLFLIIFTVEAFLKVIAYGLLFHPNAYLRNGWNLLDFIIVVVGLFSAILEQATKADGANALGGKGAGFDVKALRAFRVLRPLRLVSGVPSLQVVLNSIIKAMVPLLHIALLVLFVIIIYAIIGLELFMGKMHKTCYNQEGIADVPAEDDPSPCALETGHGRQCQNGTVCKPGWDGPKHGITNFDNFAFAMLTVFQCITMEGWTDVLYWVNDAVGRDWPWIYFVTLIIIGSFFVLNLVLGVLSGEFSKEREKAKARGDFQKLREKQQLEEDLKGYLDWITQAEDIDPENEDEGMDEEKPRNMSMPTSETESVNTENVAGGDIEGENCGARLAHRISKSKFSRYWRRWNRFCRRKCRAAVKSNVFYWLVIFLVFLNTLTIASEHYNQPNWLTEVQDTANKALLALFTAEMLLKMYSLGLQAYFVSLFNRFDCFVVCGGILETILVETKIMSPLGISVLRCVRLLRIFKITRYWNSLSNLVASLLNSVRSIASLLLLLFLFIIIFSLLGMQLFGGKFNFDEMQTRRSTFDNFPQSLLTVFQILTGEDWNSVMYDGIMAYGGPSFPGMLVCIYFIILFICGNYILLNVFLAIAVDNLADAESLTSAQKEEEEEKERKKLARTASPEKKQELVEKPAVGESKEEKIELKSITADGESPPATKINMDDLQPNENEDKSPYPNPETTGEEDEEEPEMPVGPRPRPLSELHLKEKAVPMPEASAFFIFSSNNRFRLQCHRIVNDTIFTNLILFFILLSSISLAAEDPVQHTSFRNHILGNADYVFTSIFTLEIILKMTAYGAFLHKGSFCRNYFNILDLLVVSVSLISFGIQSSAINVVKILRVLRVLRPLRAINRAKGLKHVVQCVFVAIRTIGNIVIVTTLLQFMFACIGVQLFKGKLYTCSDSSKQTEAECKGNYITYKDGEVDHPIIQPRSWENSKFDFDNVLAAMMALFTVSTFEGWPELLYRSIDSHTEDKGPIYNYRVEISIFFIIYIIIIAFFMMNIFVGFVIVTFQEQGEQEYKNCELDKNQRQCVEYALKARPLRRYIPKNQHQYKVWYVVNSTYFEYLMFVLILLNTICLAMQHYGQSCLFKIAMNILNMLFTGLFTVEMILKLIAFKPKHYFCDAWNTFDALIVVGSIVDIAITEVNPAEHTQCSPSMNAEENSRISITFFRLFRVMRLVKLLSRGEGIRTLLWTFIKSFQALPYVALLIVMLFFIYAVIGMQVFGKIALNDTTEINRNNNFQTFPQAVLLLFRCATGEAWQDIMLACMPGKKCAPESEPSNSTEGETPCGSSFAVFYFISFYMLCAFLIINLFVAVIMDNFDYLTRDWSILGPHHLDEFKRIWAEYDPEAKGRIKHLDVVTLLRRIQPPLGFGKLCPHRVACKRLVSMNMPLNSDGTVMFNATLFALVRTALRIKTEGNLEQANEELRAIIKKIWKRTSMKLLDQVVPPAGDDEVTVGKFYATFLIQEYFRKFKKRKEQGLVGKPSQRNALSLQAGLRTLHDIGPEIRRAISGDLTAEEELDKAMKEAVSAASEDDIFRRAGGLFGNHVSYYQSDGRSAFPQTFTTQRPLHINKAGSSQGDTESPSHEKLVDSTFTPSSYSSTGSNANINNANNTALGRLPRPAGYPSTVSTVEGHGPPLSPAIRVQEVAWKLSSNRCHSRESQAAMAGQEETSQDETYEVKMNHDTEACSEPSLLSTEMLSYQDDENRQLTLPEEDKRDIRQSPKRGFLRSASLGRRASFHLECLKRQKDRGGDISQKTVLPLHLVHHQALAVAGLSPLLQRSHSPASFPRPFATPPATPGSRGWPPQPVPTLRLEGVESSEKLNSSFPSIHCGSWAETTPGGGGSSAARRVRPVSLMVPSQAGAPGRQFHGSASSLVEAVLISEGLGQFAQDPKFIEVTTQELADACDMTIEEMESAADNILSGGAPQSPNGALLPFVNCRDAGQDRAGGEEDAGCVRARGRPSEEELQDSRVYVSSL
cloned L-type channels (subunit α1C77), sequence (P54289 25-956 partner limits assumed): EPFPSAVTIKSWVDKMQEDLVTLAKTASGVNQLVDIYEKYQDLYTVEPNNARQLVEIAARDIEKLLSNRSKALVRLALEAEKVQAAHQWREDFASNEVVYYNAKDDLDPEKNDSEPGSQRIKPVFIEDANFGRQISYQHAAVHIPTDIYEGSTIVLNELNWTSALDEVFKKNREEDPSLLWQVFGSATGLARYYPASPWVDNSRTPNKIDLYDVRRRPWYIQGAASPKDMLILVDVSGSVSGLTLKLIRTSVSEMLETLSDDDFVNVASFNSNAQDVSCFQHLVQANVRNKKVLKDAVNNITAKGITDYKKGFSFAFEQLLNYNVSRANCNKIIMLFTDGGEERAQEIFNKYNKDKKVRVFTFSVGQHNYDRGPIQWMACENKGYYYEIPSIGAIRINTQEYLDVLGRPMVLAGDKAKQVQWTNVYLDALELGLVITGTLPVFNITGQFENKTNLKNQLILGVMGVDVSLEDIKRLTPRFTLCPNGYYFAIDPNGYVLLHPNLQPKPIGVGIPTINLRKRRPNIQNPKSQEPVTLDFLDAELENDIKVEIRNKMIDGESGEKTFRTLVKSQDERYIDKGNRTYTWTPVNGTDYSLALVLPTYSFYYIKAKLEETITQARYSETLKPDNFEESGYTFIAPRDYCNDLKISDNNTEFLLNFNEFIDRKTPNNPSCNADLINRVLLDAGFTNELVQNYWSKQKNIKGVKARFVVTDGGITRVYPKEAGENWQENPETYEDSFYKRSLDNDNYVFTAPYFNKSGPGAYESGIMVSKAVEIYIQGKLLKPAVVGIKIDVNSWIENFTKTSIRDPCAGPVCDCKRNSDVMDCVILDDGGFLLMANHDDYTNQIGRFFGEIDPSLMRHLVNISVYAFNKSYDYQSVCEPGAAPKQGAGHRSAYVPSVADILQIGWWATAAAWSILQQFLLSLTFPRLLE
cloned L-type channels (subunit α1C77), sequence (P54289 957-1103 partner limits assumed): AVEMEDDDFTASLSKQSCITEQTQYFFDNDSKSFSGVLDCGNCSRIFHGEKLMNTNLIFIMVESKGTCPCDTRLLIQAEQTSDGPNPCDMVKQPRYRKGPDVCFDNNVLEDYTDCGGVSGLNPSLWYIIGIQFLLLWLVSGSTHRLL
cloned L-type channels (subunit α1C77), sequence (Q02641 whole entry partner): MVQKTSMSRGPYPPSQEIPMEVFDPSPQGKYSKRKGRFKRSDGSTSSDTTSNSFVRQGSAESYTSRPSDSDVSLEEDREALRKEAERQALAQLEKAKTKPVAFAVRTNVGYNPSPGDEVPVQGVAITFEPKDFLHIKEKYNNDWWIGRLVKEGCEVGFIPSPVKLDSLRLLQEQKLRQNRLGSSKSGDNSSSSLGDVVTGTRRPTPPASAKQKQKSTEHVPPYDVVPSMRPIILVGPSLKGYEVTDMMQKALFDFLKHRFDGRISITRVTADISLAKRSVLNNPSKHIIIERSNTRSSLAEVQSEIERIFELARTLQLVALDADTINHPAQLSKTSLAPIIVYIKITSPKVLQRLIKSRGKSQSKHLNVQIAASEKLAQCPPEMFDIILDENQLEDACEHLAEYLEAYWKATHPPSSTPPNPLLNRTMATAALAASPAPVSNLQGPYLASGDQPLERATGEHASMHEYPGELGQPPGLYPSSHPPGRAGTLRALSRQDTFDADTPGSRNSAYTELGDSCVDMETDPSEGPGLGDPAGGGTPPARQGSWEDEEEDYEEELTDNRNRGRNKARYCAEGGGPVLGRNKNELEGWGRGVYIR

Compound: 1589-1610: ~22 aa peptide of α1C residues 1589-1610, site important for tethering of apoCaM (KRLVSMNMPLNSDGTVMFNATL; UniProt Q13936 1589-1610, looked up, fragment)
- interaction of the kinase with the 1581-1690 fusion protein in presence of peptide [1]: not inhibited

Compound: 1615-1636: ~22 aa peptide of α1C residues 1615-1636, site important for tethering of apoCaM (RTALRIKTEGNLEQANEELRAI; UniProt Q13936 1615-1636, looked up, fragment)
- interaction of the kinase with the 1581-1690 fusion protein in presence of peptide [1]: not inhibited

Compound: 1639-1660: ~22 aa peptide generated from α1C residues 1639-1660 (Pitt et al., 2001) (KIWKRTSMKLLDQVVPPAGDDE; UniProt Q13936 1639-1660, looked up, fragment)
- interaction of the kinase with the 1581-1690 fusion protein in presence of peptide [1]: dramatically reduced

Compound: COc1ccc([C@@H]2Sc3ccccc3N(CCN(C)C)C(=O)[C@@H]2OC(C)=O)cc1 [diltiazem]
- use-dependence of diltiazem block of calcium currents [2]: none were found

Compound: PP1: Hisx6-tagged protein phosphatase 1 catalytic subunit, purified recombinant
- remaining autonomous activity of α1C-bound CaMKII, % of that without PP1 treatment (CaMKII; PP1 for 30 min, peptide AC-2 as substrate): 1.2±0.6%
- time to complete dephosphorylation (loss of autonomous activity) of soluble kinase (CaMKII; soluble CaMKII in solution): ≤ 30 min

Compound: autocamtide-2-related inhibitory peptide (KKALRRQEAVDAL)
- decrease in peak L-type current over the course of the depolarizing pulse train [3]: ~25%
